Structures are written as SMILES.

Type in all cases: in vivo
Common to all, as to settings: 320 grams per hectare, scored visually after 3 to 4 weeks

Series [1] has as its system oilseed rape. Put plainly: Pre-emergence compatibility with crop plants. An excerpt: (§1) Pre-emergence Herbicidal Action against Weed Plants and Compatibility with Crop Plants
(§2) Seeds or rhizome sections of mono- and dicotyledonous weed plants are set out in pots of 9 to 13 cm in diameter in sandy loam soil, and are covered with soil. The herbicides, formulated as emulsifiable concentrates or dusting products, are applied to the surface of the covering earth in different doses in the form of aqueous dispersions or suspensions or emulsions, at a water application rate of 300 to 800 I/ha (converted). The pots are then maintained under glass under optimum conditions for the further cultivation of the plants. After the trial plants have stood for 3 to 4 weeks under glass under optimum growth conditions, the effect of the inventive compounds is scored visually.

Series [2] relates to corn. The experiment in a line: Post-emergence compatibility with crop plants. Here is the method: Post-emergence herbicidal action against weed plants and compatibility with crop plants Seeds of monocotyledonous and dicotyledonous weed plants are set out in cardboard pots in sandy loam soil, covered with soil, and cultivated under glass under good growth conditions. Two to three weeks after sowing, the trial plants are treated at the three-leaf stage. The inventive compounds, formulated as wettable powders or as emulsifiable concentrates, are sprayed onto the surface of the green parts of the plants, at a water application rate of 600 to 800 I/ha (converted). After the trial plants have stood for 3 to 4 weeks under glass under optimum growth conditions, the effect of the inventive compounds is scored visually.

Series [3] deals with corn. The experiment in a line: Pre-emergence compatibility with crop plants.
Source text: as §1, §2

Take `C=CCn1c(=O)c(-c2c(C)cc(C)cc2C)c(O)c2scnc21` [I-a-2, 4-allyl-7-hydroxy-6-mesityl[1,3]thiazolo[4,5-b]pyridin-5(4H)-one]: the “damage in oilseed rape” value in series [1] is on record as “do not exhibit any damage”.
For `C=CCn1c(=O)c(-c2c(Br)cc(Cl)cc2CC)c(O)c2cn(C)nc21` [I-a-28], the “damage in oilseed rape” value in series [1] is given as “do not exhibit any damage”.
In the case of `CCc1cc(Cl)cc(Br)c1-c1c(O)c2scnc2n(CC(F)F)c1=O` [I-a-36], the damage in corn entry in series [2] and in series [3] was “do not exhibit any damage” throughout.
In the case of `Cc1cc(C)c(-c2c(O)c3scnc3n(CC(F)F)c2=O)c(C)c1` [I-a-37], the damage in corn result in series [2] is recorded as “do not exhibit any damage”.
Take `CCc1cc(Cl)cc(Br)c1-c1c(O)c2cn(C)nc2n(CC(F)F)c1=O` [I-a-43]: the “damage in oilseed rape” value in series [1] is on record as “do not exhibit any damage”.
For `C#CCn1c(=O)c(-c2c(Cl)cccc2Cl)c(O)c2scnc21` [I-a-44], the damage in corn result in series [2] and in series [3] was “do not exhibit any damage” each time.
Regarding `O=c1c(-c2c(Cl)ccc(Br)c2Cl)c(O)c2scnc2n1CC(F)F` [I-a-75], in series [3], the damage in corn result is given as “do not exhibit any damage”.
For `O=c1c(-c2c(Cl)ccc(C3CC3)c2Cl)c(O)c2scnc2n1CC(F)F` [I-a-83], the damage in corn result in series [2] is on record as “do not exhibit any damage”.
As to `Cc1ccc(Cl)c(-c2c(O)c3scnc3n(CC(F)(F)F)c2=O)c1Cl` [I-a-86], the damage in corn result in series [2] was “do not exhibit any damage”.
As to `Cc1ccc(Cl)c(-c2c(O)c3scnc3n(CC(F)F)c2=O)c1Cl` [I-a-89], the damage in corn result in series [3] is “do not exhibit any damage”.
For the compound `Cc1c(Br)ccc(Cl)c1-c1c(O)c2scnc2n(C)c1=O` [I-a-93], the damage in corn entry in series [2] was “do not exhibit any damage”.
On to `Cc1c(Br)ccc(Cl)c1-c1c(O)c2scnc2n(CC(F)F)c1=O` [I-a-94], for which, in series [3], the damage in corn result is on record as “do not exhibit any damage”.
Consider `Cc1cc(Br)cc(C)c1-c1c(O)c2scnc2n(CC(F)F)c1=O` [I-a-97], for which, in series [3], the damage in corn result is “do not exhibit any damage”.
With `C=CCn1c(=O)c(-c2c(Br)cc(Cl)cc2CC)c(OC(=O)C(C)(C)C)c2scnc21` [I-b-22], in series [3], the damage in corn result is reported as “do not exhibit any damage”.
Consider `CCOC(=O)Oc1c(-c2c(C)cc(Br)cc2CC)c(=O)n(C)c2ncsc12` [I-c-38], for which the damage in corn entry in series [3] is “do not exhibit any damage”.
Take `C[N+](C)(C)C.Cc1cc(C)c(-c2c([O-])c3scnc3n(CC(F)F)c2=O)c(C)c1` [I-g-5]: in series [2], the damage in corn result is “do not exhibit any damage”.
Take `C#CCOc1c(-c2ccccc2C(F)(F)F)c(=O)n(CC#C)c2ncsc12` [I-h-11]: in series [2], the damage in corn result was “do not exhibit any damage”.

Source of the values: patent US8686000B2, “Herbicidally active ketosultams and diketopyridines” (Bayer Cropscience AG, priority 2010, dated 2014).
